Reference: the NIST ThermoML archive (doi:10.1016/j.jct.2005.06.001)
Values joined by “and” are separate entries in the source; they are usually repeats but may differ in a detail not shown here. Equal values may be shown once. Numbers after ± are expanded uncertainties.

Conditions: Crystal; for vapor or sublimation pressure: Calculated from knudsen effusion weight loss; for Normal melting temperature: visual observation

Cc1c2ccccc2c(C)c2ccccc12 [9,10-dimethylanthracene]
Conditions | Normal melting temperature [°C] | vapor or sublimation pressure
– | 186.4 ± 0.5 | –
363.18 K | – | 0.000229 ± 1.1e-05 kPa and 0.000242 ± 1.2e-05 kPa and 0.000213 ± 1.1e-05 kPa
365.2 K | – | 0.000287 ± 1.4e-05 kPa and 0.000302 ± 1.5e-05 kPa and 0.000271 ± 1.4e-05 kPa
367.18 K | – | 0.000344 ± 1.7e-05 kPa and 0.00036 ± 1.8e-05 kPa and 0.000332 ± 1.7e-05 kPa
369.18 K | – | 0.000444 ± 2.2e-05 kPa and 0.00041 ± 2.1e-05 kPa and 0.000425 ± 2.1e-05 kPa
371.2 K | – | 0.000498 ± 2.5e-05 kPa and 0.00053 ± 2.7e-05 kPa and 0.000494 ± 2.5e-05 kPa
373.19 K | – | 0.000613 ± 3.1e-05 kPa and 0.000654 ± 3.3e-05 kPa and 0.00061 ± 3.1e-05 kPa
375.18 K | – | 0.000736 ± 3.7e-05 kPa and 0.000761 ± 3.8e-05 kPa and 0.00071 ± 3.6e-05 kPa
377.17 K | – | 0.00088 ± 4.4e-05 kPa and 0.000913 ± 4.6e-05 kPa and 0.000841 ± 4.2e-05 kPa
378.98 K | – | 0.001057 ± 0.00011 kPa and 0.001092 ± 0.00011 kPa and 0.001008 ± 0.0001 kPa

CCc1ccc2cc3ccccc3cc2c1 [2-ethylanthracene]
Conditions | Normal melting temperature [°C] | vapor or sublimation pressure
– | 154.5 ± 0.5 | –
343.27 K | – | 0.000164 ± 8e-06 kPa and 0.000165 ± 8e-06 kPa
345.13 K | – | 0.000203 ± 1e-05 kPa and 0.0002 ± 1e-05 kPa
347.1 K | – | 0.000239 ± 1.2e-05 kPa and 0.000235 ± 1.2e-05 kPa and 0.000241 ± 1.2e-05 kPa
349.26 K | – | 0.000306 ± 1.5e-05 kPa and 0.000309 ± 1.5e-05 kPa and 0.000301 ± 1.5e-05 kPa
351.15 K | – | 0.000378 ± 1.9e-05 kPa and 0.000372 ± 1.9e-05 kPa and 0.00037 ± 1.9e-05 kPa
353.11 K | – | 0.000465 ± 2.3e-05 kPa and 0.000456 ± 2.3e-05 kPa and 0.000458 ± 2.3e-05 kPa
355.27 K | – | 0.00056 ± 2.8e-05 kPa and 0.000562 ± 2.8e-05 kPa and 0.000569 ± 2.9e-05 kPa
357.07 K | – | 0.000684 ± 3.4e-05 kPa and 0.000668 ± 3.3e-05 kPa
359.05 K | – | 0.000828 ± 4.1e-05 kPa and 0.000833 ± 4.2e-05 kPa and 0.000824 ± 4.1e-05 kPa

Cc1c2ccccc2cc2ccccc12 [9-methylanthracene]
Conditions | Normal melting temperature [°C] | vapor or sublimation pressure
– | 81.7 ± 0.5 | –
329.16 K | – | 0.000185 ± 9e-06 kPa and 0.000194 ± 1e-05 kPa and 0.000184 ± 9e-06 kPa
331.19 K | – | 0.000237 ± 1.2e-05 kPa and 0.000244 ± 1.2e-05 kPa and 0.000236 ± 1.2e-05 kPa
333.17 K | – | 0.000271 ± 1.4e-05 kPa and 0.000297 ± 1.5e-05 kPa and 0.000286 ± 1.4e-05 kPa
335.16 K | – | 0.00036 ± 1.8e-05 kPa and 0.00035 ± 1.8e-05 kPa and 0.000345 ± 1.7e-05 kPa
337.15 K | – | 0.000427 ± 2.1e-05 kPa and 0.00045 ± 2.3e-05 kPa and 0.000435 ± 2.2e-05 kPa
339.16 K | – | 0.000562 ± 2.8e-05 kPa and 0.000577 ± 2.9e-05 kPa and 0.000559 ± 2.8e-05 kPa
341.17 K | – | 0.000666 ± 3.3e-05 kPa and 0.000681 ± 3.4e-05 kPa and 0.00066 ± 3.3e-05 kPa
343.21 K | – | 0.000829 ± 4.2e-05 kPa and 0.000851 ± 4.3e-05 kPa and 0.000821 ± 4.1e-05 kPa
345.19 K | – | 0.001004 ± 0.0001 kPa and 0.00104 ± 0.00011 kPa and 0.001011 ± 0.0001 kPa
